In general, IC50 refers to the concentration at which inhibition is half-maximal.

Experiment [1] has as its target recombinant human SGK-1 enzyme (Homo sapiens, UniProt O00141). In words: Enzymatic activity assay: SGK-1 substrate peptide phosphorylation (Caliper lab-chip mobility shift). Format: biochemical. As to conditions: peptide substrate 1 μM, ATP 10 μM, 60 min at 37° C., read-out: IC50 values for inhibition of SGK-1 enzymatic activity.
Experiment [2] concerns SGK-1 dependent phosphorylation of GSK3beta in U2OS cells. In words: SGK-1 dependent phosphorylation of GSK3beta in U2OS cells overexpressing recombinant SGK-1 and GSK3beta. As to conditions: U2OS cells, 6 h incubation, ratio of phosphorylated GSK3beta to total GSK3beta; read-out: IC50 values for inhibition of SGK-1 dependent phosphorylation of GSK3beta in U2OS cells. It counts as cell-based, human.

Sequence of recombinant human SGK-1 enzyme (O00141 whole entry, looked up): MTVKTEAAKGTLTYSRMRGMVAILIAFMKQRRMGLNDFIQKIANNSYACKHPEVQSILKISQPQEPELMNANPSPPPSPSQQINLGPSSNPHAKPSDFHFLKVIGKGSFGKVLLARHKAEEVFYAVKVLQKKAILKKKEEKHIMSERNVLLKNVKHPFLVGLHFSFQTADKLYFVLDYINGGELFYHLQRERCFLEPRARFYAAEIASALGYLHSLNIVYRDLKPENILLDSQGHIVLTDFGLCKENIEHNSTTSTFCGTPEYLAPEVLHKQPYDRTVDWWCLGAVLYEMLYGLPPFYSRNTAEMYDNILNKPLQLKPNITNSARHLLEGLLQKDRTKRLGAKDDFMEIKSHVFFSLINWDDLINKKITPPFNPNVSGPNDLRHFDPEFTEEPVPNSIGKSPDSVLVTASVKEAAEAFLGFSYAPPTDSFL

`O=S(=O)(Nc1ccc(-c2nc(O[C@H]3CCCC(O)C3)c3cn[nH]c3n2)cc1)c1cc(Cl)ccc1F` (some centres unmarked) [Example 84]: the IC50 came out at 0.0032 µM in experiment [1] and 1.2 µM in experiment [2].
The corresponding values for `COc1ccc(C#N)c(S(=O)(=O)Nc2ccc(-c3ncc4c(N)n[nH]c4n3)cc2)c1` [Example 522] are 0.0024 µM and 0.29 µM.
For `COc1ccc(C#N)c(S(=O)(=O)Nc2ccc(-c3nc(OC4CCC(O)CC4)c4cn[nH]c4n3)cc2)c1` (centres unmarked) [Example 134] the same measures were below 0.0015 µM and 0.64 µM.
The corresponding values for `Nc1n[nH]c2nc(-c3ccc(NS(=O)(=O)c4cccc(Cl)c4F)cc3)ncc12` [Example 515] are 0.35 µM and 0.53 µM.
In the case of `Nc1n[nH]c2nc(-c3ccc(NS(=O)(=O)c4cc(Cl)ccc4Cl)cc3)nc(OCC(F)(F)F)c12` [Example 195], the results for the IC50 in experiment [1] and in experiment [2] were 0.0054 µM and 0.21 µM, respectively.
For `CC(C)COc1nc(-c2ccc(NS(=O)(=O)c3ccccc3Cl)cc2)nc2[nH]nc(N)c12` [Example 316], the IC50 is 0.48 µM in experiment [1] and 0.27 µM in experiment [2].
For `Cc1ccc(F)c(S(=O)(=O)Nc2ccc(-c3nc(OCCC(N)=O)c4cn[nH]c4n3)cc2)c1` [Example 116] the same measures were below 0.0015 µM and 4.8 µM.

(Values after US9718825B2, “N-(4-(azaindazol-6-yl)-phenyl)-sulfonamides and their use as pharmaceuticals” (priority 2013, dated 2017).)
